Where a name gives a salt, the structure may show the parent alone. Read-outs that look alike come from different tables or passages of the source.
Assays:
[1] = test system: MCF-7 breast cancer cells; assay: Alamar Blue growth/proliferation study; format: cell-based, human; settings: MCF-7, NMDAR1 antagonist treatment
[2] = test system: SKBr3 breast cancer cells; assay: Alamar Blue growth/proliferation study; format: cell-based, human; settings: SKBr3, NMDAR1 antagonist treatment
Method: Results represent triplicate studies performed with Alamar Blue on LAN2 neuroblastoma, MCF-7 breast cancer, and SKBr3 breast cancer cells examining the growth influence of 1 mM glutamate in the presence of glycine over 24 hours.
Results represent triplicate studies performed with Alamar Blue on LAN2 neuroblastoma, MCF-7 breast cancer, and SKBr3 breast cancer cells examining the growth influence of 100 mM Mg^++ in the presence of glycine over 24 hours.

[3] = test system: NCI-H345 classical SCLC cells; assay: Cell growth/viability assay (Alamar Blue); settings: for IC50: Homo sapiens
Method: Cultures of NCI-H345, NCI-H146, DMS-53 cells (classical cell lines), and NCI-H82 cells (variant cell line) were treated with 0.05% trypsin, washed in phosphate buffered saline (PBS)/glycine and plated onto 96-well plates at 10^4 cells/well in medium for 24 hours to provide time for rectifying possible damage to membrane proteins from the trypsinization. The wells were washed and incubated with PBS/glycine containing albumin (1.25 mg/mL) in the presence or absence of different concentrations (25 μM-800 μM) of either the NMDAR 1 antagonists, Memantine or MK-801; or the NMDAR2B antagonists Ifenprodil and Ro 25-6981 (binders to the polyamine site), or the NMDAR2B antagonists L-701,252 and L-701,324 (binders to the glycine site), or vehicle; and Alamar Blue (1:10 dilution following manufacturer's recommendation). Fluorescent readings were taken at periods representing 24, 48, and 72 hours of incubation with antagonist using a Synergy HT Multi-Detection Microplate Reader and excitation/emission wavelengths of 530 nm and 590 nm. Cell viability was evaluated as % vehicle control at the corresponding incubation time.
This peptide domain is represented in that portion of the mRNA message sequenced by RT-PCR. For studies on cell proliferation, the IgGs of this antiserum were first isolated by precipitation with 50% saturated ammonium sulfate, and antibodies purified from these immunoglobulins by affinity chromatography using a column containing the peptide component of the above antigen coupled to SEPHAROSE (Friedmann, et al. (1994) supra; Keegan, et al. (2002) supra).

[4] = test system: NCI-H82 variant SCLC cells; assay: Cell growth/viability assay (Alamar Blue); format: cell-based, human; settings: for IC50: Homo sapiens
Method: (§1) Cultures of NCI-H345, NCI-H146, DMS-53 cells (classical cell lines), and NCI-H82 cells (variant cell line) were treated with 0.05% trypsin, washed in phosphate buffered saline (PBS)/glycine and plated onto 96-well plates at 10^4 cells/well in medium for 24 hours to provide time for rectifying possible damage to membrane proteins from the trypsinization. […] Fluorescent readings were taken at periods representing 24, 48, and 72 hours of incubation with antagonist using a Synergy HT Multi-Detection Microplate Reader and excitation/emission wavelengths of 530 nm and 590 nm. Cell viability was evaluated as % vehicle control at the corresponding incubation time.

NCI-H146 cells = assay: Cell growth/viability assay (Alamar Blue); format: cell-based, human; settings: Homo sapiens, NCI-H146, 48 h, read-out: IC50, cell viability
Method: as §1

DMS-53 cells = assay: Cell growth/viability assay (Alamar Blue); format: cell-based, human; settings: Homo sapiens, DMS-53, 48 h, read-out: IC50, cell viability
Method: as §1

[5] = test system: SCLC NCI-H345 tumor xenografts; assay: Treatment of SCLC tumor xenografts in mice; format: in vivo, nu/nu mice
From the text: Human tumor xenografts of small cell lung cancer (SCLC) cell line NCI-H345 were raised in nu/nu mice, and the influence of the NMDAR1 receptor antagonist dizocilpine maleate (MK-801) then examined on established tumor growth measured by multiplying depth, width, and length determined using a micrometer. Tumor growth in a control group of animals receiving i.p. PBS vehicle (n=4) was compared to tumor growth in animals (n=4) receiving dizocilpine maleate (MK-801) over 10 days. Animals received an escalating single dose of this NMDAR1 antagonist from 0.1 mg/Kg body weight each day for days 0-2, then to a single dose of 0.2 mg/Kg body weight each day for days 3-6, then to a single dose of 0.3 mg/Kg body weight each day for days 7-8. Finally two daily doses of 0.3 mg/Kg body weight were given for days 8-10.
Results were analyzed by Analysis of Variance and the Student-Neuman-Kuels test. Longitudinal growth data was evaluated using repeated measures ANOVA. Significant was determined to be present for p<0.05.

[6] = test system: Ovarian A2780 and A2008 cancer cells; assay: Ovarian cancer cell growth (Alamar Blue); format: cell-based, human
Method: Ovarian A2780 and A2008 cancer cells were plated in 96 well plates at 1-2×10^4 cells/well. […] Alamar Blue was later added to each well following an incubation period, and fluorescent readings taken at excitation 530-560 nm and emission of 590 nm and above on a SYNERGY HT Multi Detection Reader. […] Significance was p<0.001 for 400 to 900 μM of MK-801. […] These findings indicate both NMDAR antagonists and anti-NMDA receptor monoclonal antibodies would be of use as effective inhibitors of ovarian tumor xenografts in mice.

[7] = test system: LNCAP prostate cancer cells; assay: Prostate cancer cell viability (Alamar Blue); format: cell-based, human
Method: To determine the effects of NMDAR1 antibodies on prostate cell viability, LNCAP prostate cancer cells were plated in 96 well plates at 1-2×10^4 cells/well. […] Alamar Blue was later added to each well following an incubation period, and fluorescent readings taken at excitation 530-560 nm and emission 590 nm and above on a SYNERGY HT Multi Detection Reader.

[8] = test system: Human tumor xenografts of breast cancer cells; assay: Breast cancer xenografts treated with anti-NMDAR1 antibodies; design: species or system nu/nu mice; settings: mouse
Method: Human tumor xenografts of breast cancer cells were raised in nu/nu mice, and the influence of anti-NMDAR1 polyclonal antibodies then examined on tumor growth. For antibody studies, growth in a control group (n=4) was compared to tumor growth in animals (n=4) receiving 50 ng of Protein A-isolated, antibody-containing, IgG once each day for 15 days. Tumor was then measured for an […]. While control tumors grew to >20 times their original size, tumors treated with anti-NMDAR1 antibodies shrank to <50% original size and remained at this shrunken size for the duration of treatment (p<<0.0001)(FIG. 7). Tumor size then began very slowly to rise but even 20 days later they were only back to original size (100%). Values are expressed as a percentage of tumor size at day 0 (+/−SEM).

[9] = test system: SKBr3 breast cancer cells; assay: Alamar Blue growth/proliferation study; format: cell-based, human

## C[C@]12N[C@H](Cc3ccccc31)c1ccccc12 [MK-801, dizocilpine maleate]
[1]
  effect on proliferation (in words): decrease proliferation
[2]
  effect on proliferation (in words): decrease proliferation
[3]; NCI-H345, 48 h, read-out: IC50, cell viability
  IC50: 300 µM
[3]; NCI-H345, read-out: IC50, cell viability
  IC50: ~200 µM
[3]; NCI-H345, 24, 48, and 72 hours incubation
  Cell viability reduced to: about 10 % of control
[4]; NCI-H82, 48 h, read-out: IC50, cell viability
  IC50: 300 µM
[4]; NCI-H82, read-out: IC50, cell viability
  IC50: ~200 µM
[4]; NCI-H82, 24, 48, and 72 hours incubation
  Cell viability reduced to: about 10 % of control
NCI-H146 cells
  IC50: 650 µM
DMS-53 cells
  IC50: > 800 µM
[5]; MK-801 at the dose indicated
  behavioral effects in the animals: no noticeable behavioral effects
  well-being as exemplified by body weight: no apparent effect on their well-being
[5]; escalating doses from 0.1 mg/kg once daily to 0.3 mg/kg twice daily
  Growth of small-cell tumors (in words): significantly (p<0.0001) reduced
[5]; i.p., escalating 0.1 to 0.3 mg/Kg over 10 days
  rate of tumor growth reduced to: ~60 % that of controls
[6]; at 500, 600, 700, 800, and 900 μM compared to 100, 200 and 400 μM
  reduction in fluorescent units: more than 50%
[6]; ovarian cancer cells, Alamar Blue
  effect on cell growth (in words): dramatic reductions in cell growth
[7]
  effect on cell growth/viability (in words): significance in reductions was p<0.001 for 400 to 900 μM
[8]
  growth of breast cancer tumors in vivo (in words): completely inhibited growth of these tumors in vivo
[9]; 100 μM, 24 Hours
  Proliferation of SKBr3 Cells Percent Fluorescence Compared to Control: 92.29 ± 6.82%
[9]; 100 μM, 48 Hours
  Proliferation of SKBr3 Cells Percent Fluorescence Compared to Control: 91.74 ± 2.94%
[9]; 100 μM, 72 Hours
  Proliferation of SKBr3 Cells Percent Fluorescence Compared to Control: 95.06 ± 1.22%
[9]; 200 μM, 24 Hours
  Proliferation of SKBr3 Cells Percent Fluorescence Compared to Control: 89.47 ± 5.77%
[9]; 200 μM, 48 Hours
  Proliferation of SKBr3 Cells Percent Fluorescence Compared to Control: 89.35 ± 2.83%
[9]; 200 μM, 72 Hours
  Proliferation of SKBr3 Cells Percent Fluorescence Compared to Control: 93.24 ± 1.68%
[9]; 300 μM, 24 Hours
  Proliferation of SKBr3 Cells Percent Fluorescence Compared to Control: 84.39 ± 5.01%
[9]; 300 μM, 48 Hours
  Proliferation of SKBr3 Cells Percent Fluorescence Compared to Control: 83.79 ± 2.71%
[9]; 300 μM, 72 Hours
  Proliferation of SKBr3 Cells Percent Fluorescence Compared to Control: 88.97 ± 2.04%
[9]; 400 μM, 24 Hours
  Proliferation of SKBr3 Cells Percent Fluorescence Compared to Control: 75.17 ± 4.67%
[9]; 400 μM, 48 Hours
  Proliferation of SKBr3 Cells Percent Fluorescence Compared to Control: 70.62 ± 2.34%
[9]; 400 μM, 72 Hours
  Proliferation of SKBr3 Cells Percent Fluorescence Compared to Control: 77.08 ± 2.78%
[9]; 500 μM, 24 Hours
  Proliferation of SKBr3 Cells Percent Fluorescence Compared to Control: 65.50 ± 3.74%
[9]; 500 μM, 48 Hours
  Proliferation of SKBr3 Cells Percent Fluorescence Compared to Control: 59.07 ± 2.49%
[9]; 500 μM, 72 Hours
  Proliferation of SKBr3 Cells Percent Fluorescence Compared to Control: 67.02 ± 5.13%
[9]; 600 μM, 24 Hours
  Proliferation of SKBr3 Cells Percent Fluorescence Compared to Control: 58.06 ± 3.00%
[9]; 600 μM, 48 Hours
  Proliferation of SKBr3 Cells Percent Fluorescence Compared to Control: 50.59 ± 2.34%
[9]; 600 μM, 72 Hours
  Proliferation of SKBr3 Cells Percent Fluorescence Compared to Control: 52.57 ± 2.28%
[9]; 700 μM, 24 Hours
  Proliferation of SKBr3 Cells Percent Fluorescence Compared to Control: 51.97 ± 2.77%
[9]; 700 μM, 48 Hours
  Proliferation of SKBr3 Cells Percent Fluorescence Compared to Control: 43.84 ± 3.41%
[9]; 700 μM, 72 Hours
  Proliferation of SKBr3 Cells Percent Fluorescence Compared to Control: 44.88 ± 3.40%
[9]; 800 μM, 24 Hours
  Proliferation of SKBr3 Cells Percent Fluorescence Compared to Control: 43.27 ± 2.50%
[9]; 800 μM, 48 Hours
  Proliferation of SKBr3 Cells Percent Fluorescence Compared to Control: 33.77 ± 4.19%
[9]; 800 μM, 72 Hours
  Proliferation of SKBr3 Cells Percent Fluorescence Compared to Control: 33.91 ± 4.35%
[9]; 900 μM, 24 Hours
  Proliferation of SKBr3 Cells Percent Fluorescence Compared to Control: 35.73 ± 2.66%
[9]; 900 μM, 48 Hours
  Proliferation of SKBr3 Cells Percent Fluorescence Compared to Control: 25.48 ± 5.92%
[9]; 900 μM, 72 Hours
  Proliferation of SKBr3 Cells Percent Fluorescence Compared to Control: 25.21 ± 5.96%
[9]; SKBr3, 0.9 mM, 72 hours
  reduced proliferation by: about 80%

From patent US9694072B2, “Methods for diagnosing and treating neuroendocrine cancer” (Trustees of Dartmouth College, priority 2005, dated 2017)
